From article PMC11502502 (Nature cancer, 2024)
pIC50: −log10 of the molar value. Several values for one entry are separate records, joined by “and”; a condition that tells them apart may be missing. Identical values can stand only once. Like-named read-outs stand apart in the source and are kept apart here.

What was measured:
NCI-H82 = test: CellTiter-Glo cell viability, NCI-H82; assay type: cell-based; conditions: Homo sapiens, NCI-H82, 72 h
MOLP-8 = test: CellTiter-Glo cell viability, MOLP-8; assay type: cell-based; conditions: Homo sapiens, MOLP-8, 72 h
KMS-12-PE = test: CellTiter-Glo cell viability, KMS-12-PE; assay type: cell-based; conditions: Homo sapiens, 72 h
HCC-2157 = test: CellTiter-Glo cell viability, HCC-2157; assay type: cell-based; conditions: Homo sapiens, HCC2157, 72 h
SU-DHL-5 = test: CellTiter-Glo cell viability, SU-DHL-5; assay type: cell-based; conditions: Homo sapiens, SU-DHL-5, 72 h
A-427 = test: CellTiter-Glo cell viability, A-427; assay type: cell-based; conditions: Homo sapiens, A-427, 72 h
[1] = Protein-binding assay with equilibrium dialysis in cell culture medium; assay type: in vitro ADME; conditions: bovine, cell culture medium with 10% fetal calf serum
AMO-1 = test: CellTiter-Glo cell viability, AMO-1; assay type: cell-based; conditions: Homo sapiens, AMO1, 72 h
KMS-12-BM = test: CellTiter-Glo cell viability, KMS-12-BM; assay type: cell-based; conditions: Homo sapiens, 72 h
OPM-2 = test: CellTiter-Glo cell viability, OPM-2; assay type: cell-based; conditions: Homo sapiens, OPM-2, 72 h
A-431 = test: CellTiter-Glo cell viability, A-431; assay type: cell-based; conditions: Homo sapiens, A-431, 72 h
JJN-3 = test: CellTiter-Glo cell viability, JJN-3; assay type: cell-based; conditions: Homo sapiens, JJN-3, 72 h
SNU398 = test: CellTiter-Glo cell viability, SNU398; assay type: cell-based; conditions: Homo sapiens, SNU-398, 72 h
PA-1 = test: CellTiter-Glo cell viability, PA-1; assay type: cell-based; conditions: Homo sapiens, PA-1, 72 h
DMS114 = test: CellTiter-Glo cell viability, DMS114; assay type: cell-based; conditions: Homo sapiens, DMS-114, 72 h
SU-DHL-10 = test: CellTiter-Glo cell viability, SU-DHL-10; assay type: cell-based; conditions: Homo sapiens, SU-DHL10, 72 h
RPMI 8226 = test: CellTiter-Glo cell viability, RPMI 8226; assay type: cell-based; conditions: Homo sapiens, RPMI-8226, 72 h
SNU-16 = test: CellTiter-Glo cell viability, SNU-16; assay type: cell-based; conditions: Homo sapiens, SNU-16, 72 h
HMC1–8 = test: CellTiter-Glo cell viability, HMC1–8; assay type: cell-based; conditions: Homo sapiens, 72 h
HCC-1187 = test: CellTiter-Glo cell viability, HCC-1187; assay type: cell-based; conditions: Homo sapiens, HCC1187, 72 h
SNU398 (HCC) xenografts = test: SNU398 liver cancer xenograft efficacy; assay type: in vivo; conditions: SNU-398 (HCC) tumor bearing mice, Regorafinib 30 mg/kg qd po, one value per animal
[2] = test system: hiPS cell-derived cardiomyocytes; test: hiPS cell-derived cardiomyocytes: DAPI-stained number of nuclei; assay type: cell-based, human
[3] = test system: hiPS cell-derived cardiomyocytes; test: hiPS cell-derived cardiomyocytes: extracellular troponin I (AlphaLISA); assay type: cell-based, human
[4] = test system: hiPS cell-derived cardiomyocytes; test: hiPS cell-derived cardiomyocytes: activation of caspases 3 and 7; assay type: cell-based, human; conditions: 1 μM, 72 h
[5] = test system: hiPS cell-derived cardiomyocytes; test: hiPS cell-derived cardiomyocytes: cell viability (ATP levels, cell titer glow)
[6] = test system: hiPS cell-derived cardiomyocytes; test: hiPS cell-derived cardiomyocytes: extracellular LDH; assay type: cell-based, human; conditions: 1 μM, 72 h
[7] = read-out: Anti-proliferative IC50
[8] = read-out: Antiproliferative IC50u

## CO[C@H]1/C=C/C[C@H](C)[C@@H](C)S(=O)(=O)NC(=O)c2ccc3c(c2)N(C[C@@H]2CC[C@H]21)C[C@@]1(CCCc2cc(Cl)ccc21)CO3 [AMG176]
NCI-H82; [7]
  pIC50: 6.32
NCI-H82; [8]
  pIC50: 8.31
MOLP-8; [7]
  pIC50: 6.65
MOLP-8; [8]
  pIC50: 8.64
KMS-12-PE; [7]
  pIC50: 5.93
KMS-12-PE; [8]
  pIC50: 7.92
HCC-2157; [7]
  pIC50: 6.58
HCC-2157; [8]
  pIC50: 8.57
SU-DHL-5; [7]
  pIC50: 6.93
SU-DHL-5; [8]
  pIC50: 8.92
A-427; [7]
  pIC50: 6.25
A-427; [8]
  pIC50: 8.24
[1]
  fraction unbound: 0.01
AMO-1; [7]
  pIC50: 6.90
AMO-1; [8]
  pIC50: 8.89
KMS-12-BM; [7]
  pIC50: 6.74
KMS-12-BM; [8]
  pIC50: 8.72
OPM-2; [7]
  pIC50: 6.93
OPM-2; [8]
  pIC50: 8.92
A-431; [7]
  pIC50: 6.19
A-431; [8]
  pIC50: 8.18
JJN-3; [7]
  pIC50: 6.26
JJN-3; [8]
  pIC50: 8.24
SNU398; [7]
  pIC50: 6.31
SNU398; [8]
  pIC50: 8.29
PA-1; [7]
  pIC50: 6.20
PA-1; [8]
  pIC50: 8.19
DMS114; [7]
  pIC50: 6.55
DMS114; [8]
  pIC50: 8.54
SU-DHL-10; [7]
  pIC50: 7.06
SU-DHL-10; [8]
  pIC50: 9.05
RPMI 8226; [7]
  pIC50: 6.54
RPMI 8226; [8]
  pIC50: 8.52
SNU-16; [7]
  pIC50: 6.23
SNU-16; [8]
  pIC50: 8.22
HMC1–8; [7]
  pIC50: 6.23
HMC1–8; [8]
  pIC50: 8.22
HCC-1187; [7]
  pIC50: 6.48
HCC-1187; [8]
  pIC50: 8.47

## Cc1c2c(nn1C)CSCc1cc(n(C)n1)CSc1cc(c3ccccc3c1)OCCCc1c(C(=O)O)n(C)c3c-2c(Cl)ccc13 [AZD5991]
NCI-H82; [7]
  pIC50: 6.79
NCI-H82; [8]
  pIC50: 8.47
MOLP-8; [7]
  pIC50: 7.42
MOLP-8; [8]
  pIC50: 9.10
KMS-12-PE; [7]
  pIC50: 6.68
KMS-12-PE; [8]
  pIC50: 8.36
HCC-2157; [7]
  pIC50: 7.02
HCC-2157; [8]
  pIC50: 8.70
SU-DHL-5; [7]
  pIC50: 7.85
SU-DHL-5; [8]
  pIC50: 9.52
A-427; [7]
  pIC50: 7.28
A-427; [8]
  pIC50: 8.96
[1]
  fraction unbound: 0.021
AMO-1; [7]
  pIC50: 7.24
AMO-1; [8]
  pIC50: 8.92
KMS-12-BM; [7]
  pIC50: 7.48
KMS-12-BM; [8]
  pIC50: 9.15
OPM-2; [7]
  pIC50: 7.48
OPM-2; [8]
  pIC50: 9.15
A-431; [7]
  pIC50: 6.66
A-431; [8]
  pIC50: 8.34
JJN-3; [7]
  pIC50: 7.15
JJN-3; [8]
  pIC50: 8.82
SNU398; [7]
  pIC50: 7.28
SNU398; [8]
  pIC50: 8.96
PA-1; [7]
  pIC50: 6.98
PA-1; [8]
  pIC50: 8.66
DMS114; [7]
  pIC50: 7.15
DMS114; [8]
  pIC50: 8.82
RPMI 8226; [7]
  pIC50: 7.21
RPMI 8226; [8]
  pIC50: 8.89
SNU-16; [7]
  pIC50: 6.57
SNU-16; [8]
  pIC50: 8.25
HMC1–8; [7]
  pIC50: 6.48
HMC1–8; [8]
  pIC50: 8.16
HCC-1187; [7]
  pIC50: 7.28
HCC-1187; [8]
  pIC50: 8.96

## CNC(=O)c1cc(Oc2ccc(NC(=O)Nc3ccc(Cl)c(C(F)(F)F)c3)c(F)c2)ccn1 [Regorafinib]
SNU398 (HCC) xenografts; day 1 post treatment start
  anti-tumor efficacy, individual measurements: 63.45 and 60.8 and 64.88 and 117.14 and 74.08 and 111.9 and 95.85
SNU398 (HCC) xenografts; day 3 post treatment start
  anti-tumor efficacy, individual measurements: 72 and 76.25 and 72.91 and 127.45 and 81.33 and 119.22 and 106.01
SNU398 (HCC) xenografts; day 7 post treatment start
  anti-tumor efficacy, individual measurements: 83.42 and 75.99 and 78.47 and 145.78 and 87.63 and 117.37
SNU398 (HCC) xenografts; day 8 post treatment start
  anti-tumor efficacy, individual measurements: 100.66 and 81.04 and 87.14 and 150.75 and 99.27 and 129.84
SNU398 (HCC) xenografts; day 10 post treatment start
  anti-tumor efficacy, individual measurements: 89.75 and 86.89 and 87.88 and 152.45 and 93.82 and 132.88
SNU398 (HCC) xenografts; day 13 post treatment start
  anti-tumor efficacy, individual measurements: 96.32 and 85.08 and 98.92 and 145.11 and 103.54 and 167.23

## COc1cccc2c1C(=O)c1c(O)c3c(c(O)c1C2=O)C[C@@](O)(C(=O)CO)C[C@@H]3O[C@H]1C[C@H](N)[C@H](O)[C@H](C)O1 [doxorubicin]
[2]; 1 μM, 72 h
  Nuclear counts: decreased nuclear counts
[2]; Doxorubicin - wash, 3h
  DAPI stained number of nuclei: 0.4105 and 0.3857 and 0.4592
[2]; Doxorubicin - wash, 6h
  DAPI stained number of nuclei: 0.9721 and 0.9984 and 0.8453
[2]; Doxorubicin - wash, 24h
  DAPI stained number of nuclei: 0.5586 and 0.4572 and 0.5102
[2]; Doxorubicin - wash, 48h
  DAPI stained number of nuclei: 0.8181 and 0.8435 and 0.8812
[2]; Doxorubicin - wash, 72h
  DAPI stained number of nuclei: 0.2447 and 0.2247 and 0.2518
[2]; Doxorubicin, 3h
  DAPI stained number of nuclei: 0.3508 and 0.3671 and 0.4582
[2]; Doxorubicin, 6h
  DAPI stained number of nuclei: 0.9886 and 0.9511 and 0.985
[2]; Doxorubicin, 24h
  DAPI stained number of nuclei: 0.3141 and 0.2601 and 0.2627
[2]; Doxorubicin, 48h
  DAPI stained number of nuclei: 0.2344 and 0.4107 and 0.4046
[3]; Doxorubicin - wash, 48h
  Extracellular troponin I: 5.76 and 7.195 and 6.893
[3]; Doxorubicin - wash, 72h
  Extracellular troponin I: 12.7295 and 11.4567 and 13.7321
[3]; Doxorubicin, 3h
  Extracellular troponin I: 0.7061 and 0.6741 and 0.6927
[3]; Doxorubicin, 6h
  Extracellular troponin I: 2.491 and 1.893 and 3.419
[3]; Doxorubicin, 48h
  Extracellular troponin I: 9.842 and 16.5962 and 13.2372
[3]; Doxorubicin, 72h
  Extracellular troponin I: 30.5761 and 27.6931 and 29.1909
[4]
  Caspase 3 activation: time-dependent activation of caspase 3
[5]; 1 μM, 72 h
  ATP levels: reduced ATP levels
[5]; Doxorubicin - wash, 3h
  Cell viability via cell titer glow: 0.9604 and 0.941 and 0.9405
[5]; Doxorubicin - wash, 6h
  Cell viability via cell titer glow: 0.9905 and 0.9749 and 0.9586
[5]; Doxorubicin - wash, 24h
  Cell viability via cell titer glow: 0.9393 and 0.938 and 0.976
[5]; Doxorubicin - wash, 48h
  Cell viability via cell titer glow: 0.6883 and 0.7253 and 0.7219
[5]; Doxorubicin - wash, 72h
  Cell viability via cell titer glow: 0.5187 and 0.5467 and 0.5116
[5]; Doxorubicin, 3h
  Cell viability via cell titer glow: 0.9456 and 0.9453 and 0.963
[5]; Doxorubicin, 6h
  Cell viability via cell titer glow: 0.9853 and 1.049 and 1.001
[5]; Doxorubicin, 24h
  Cell viability via cell titer glow: 0.9003 and 0.8578 and 0.8897
[5]; Doxorubicin, 48h
  Cell viability via cell titer glow: 0.5823 and 0.6777 and 0.6323
[5]; Doxorubicin, 72h
  Cell viability via cell titer glow: 0.4355 and 0.3955 and 0.4606
[6]
  LDH release: increased LDH release
